Results taken from patent publication US9951467B2, “Bacteriostatically treating method” (JNC CORPORATION, priority 2009, dated 2018).

Assays:
[1] = test system: S. aureus; test: Antibacterial test on fiber samples immersed in polycationic polypeptide aqueous solution, bactericidal activity value (L); format: cell-based, Staphylococcus aureus
Description: (§1) Here, the bactericidal activity value (L) is defined by the following equation (for details, see the Approval Standard for Antibacterial and Deodorant Textile Products set forth by the Japan Textile Evaluation Technology Council (JTETC)). When this value (L) is ≥0, the textile product is considered to have an antibacterial effect, and it becomes eligible to be approved as a bacteriostatically treated textile product (with SEK Mark).
(§2) L (bactericidal activity value)=(Ma−Mc)
(§3) Ma: Average common logarithm value of the viable cell count or the ATP amount, which was measured for three samples immediately after the inoculation thereof onto a standard cloth.
(§4) Mc: Average common logarithm value of the viable cell count or the ATP amount, which was measured for three samples after 18 hours of culturing on an antibacterially treated cloth.
(§5) Threads, each of which was cut into 0.4 g in weight, were used as the fiber samples. Into a polycationic polypeptide aqueous solution of a prescribed concentration which was heated to a prescribed temperature (25, 50 or 75° C.), the samples were immersed for a prescribed period of time. The followings were used as the polycationic polypeptide.
(§6) Then, the fiber samples were washed by a simple method which was modified from the washing method according to JIS L-0217 103 (“Antimicrobial Agent of SENKA Corporation”; Everything about antimicrobial agents, p. 595-598, 1997, Sen-i Co., Ltd.), and the thus washed samples were dried in the air. The washing method was carried out by the following steps.
(§7) (1) Water having a temperature of 40° C. is filled into the washer water tank up to the highest line for the water level. To this water, “JAFET standard detergent (polyoxyethylene alkyl ether)” is added at a ratio of 40 mL of the detergent to 30 L of water to obtain washing solution.
(§8) (2) The fiber samples are placed into the washing solution in such a manner that the bath ratio (the weight ratio of the fibers and the washing solution at the time of washing of the fibers after the immersion) becomes 1:30, and the washing machine is operated for 25 minutes.
(§9) (3) The fiber samples are dehydrated by a dehydrator. The dehydration is carried out for 7 to 8 minutes.
(§10) (4) The washing solution is replaced with fresh water at room temperature, and rinsing and washing are performed in the filled water for 4 minutes at the same bath ratio.
(§11) (5) The fiber samples are dehydrated by a dehydrator. The dehydration is carried out for 7 to 8 minutes.
(§12) (6) Rinsing and washing are performed with running water for 2 minutes.
(§13) (7) Considering the above (1) to (6) as 5 washings, these steps are repeated twice to have the fiber samples be “washed 10 times”.
(§14) (8) The fiber samples are dehydrated by a dehydrator.
(§15) A bacterial suspension which was cultured in normal broth at 30° C. for 18 hours was mixed and diluted to prepare a diluted bacterial suspension having a concentration of 10^6 cells/mL. Placed into a vial was 0.4 g of fiber sample which was not washed or washed 10 times. Thereto inoculated was 400 μL of the diluted bacterial suspension, which was then allowed to soak into the sample, and the sample was incubated at 37° C. After 18 hours, 20 mL of physiological saline was added to the vial and the resultant was stirred using a mixer (5 seconds×5 times) to suspend the bacterial cells. The thus obtained suspension was diluted as appropriate, and the number of bacterium was counted to calculate the bactericidal activity value (L) based on the aforementioned equation. Here, the tested bacteria were E. coli and S. aureus.

[2] = test system: E. coli; test: as above; format: cell-based, Escherichia coli
Description: as §1, §2, §3, §4, §5, §6, §7, §8, §9, §10, §11, §12, §13, §14, §15

[3] = Acryl 100% thread, immersion 25° C., 2 hours
[4] = Acryl 100% thread, immersion 25° C., 3 hours
[5] = Acryl 100% thread, immersion 25° C., 24 hours
[6] = Cotton 100% thread, immersion 50° C., 2 hours
[7] = Cotton 100% thread, immersion 50° C., 3 hours
[8] = Cotton 100% thread, immersion 50° C., 24 hours
[9] = Cotton 100% thread, immersion 75° C., 2 hours
[10] = Cotton 100% thread, immersion 75° C., 3 hours
[11] = Cotton 100% thread, immersion 75° C., 24 hours
[12] = Hemp 100% thread, immersion 25° C., 2 hours
[13] = Hemp 100% thread, immersion 25° C., 3 hours
[14] = Hemp 100% thread, immersion 25° C., 24 hours
[15] = Nylon 100% thread, immersion 25° C., 2 hours
[16] = Nylon 100% thread, immersion 25° C., 3 hours
[17] = Nylon 100% thread, immersion 25° C., 24 hours
[18] = Polyester 100% thread, immersion 25° C., 2 hours
[19] = Polyester 100% thread, immersion 25° C., 3 hours
[20] = Polyester 100% thread, immersion 25° C., 24 hours
[21] = Rayon 100% thread, immersion 25° C., 2 hours
[22] = Rayon 100% thread, immersion 25° C., 3 hours
[23] = Rayon 100% thread, immersion 25° C., 24 hours
[24] = Wool 100% thread, immersion 50° C., 2 hours
[25] = Wool 100% thread, immersion 50° C., 3 hours
[26] = Wool 100% thread, immersion 50° C., 24 hours
[27] = Wool 100% thread, immersion 75° C., 2 hours
[28] = Wool 100% thread, immersion 75° C., 3 hours
[29] = Wool 100% thread, immersion 75° C., 24 hours
[30] = cotton thread and wool, immersion 50° C., 2 hours or more (text summary of Table 1)
[31] = threads of various materials, immersion 25° C., 2 hours or more (text summary of Table 2)

ϵ-polylysine [ε-polylysine] was tested, and the “ε-polylysine concentration at which L ≥ 0 was attained, S. aureus” value (“ε-polylysine concentration … S. aureus” below) [1, 3] was 500 ppm, the “ε-polylysine concentration … S. aureus” value [1, 4] was 500 ppm and the “ε-polylysine concentration … S. aureus” value [1, 5] was 250 ppm. For the same substance, the “ε-polylysine concentration … S. aureus” value [1, 6] was 500 ppm, the “ε-polylysine concentration … S. aureus” value [1, 7] was 500 ppm and the “ε-polylysine concentration … S. aureus” value [1, 8] was 500 ppm. For the same substance, the “ε-polylysine concentration … S. aureus” value [1, 9] was 500 ppm, the “ε-polylysine concentration … S. aureus” value [1, 10] was 500 ppm and the “ε-polylysine concentration … S. aureus” value [1, 11] was 500 ppm. For the same substance, the “ε-polylysine concentration … S. aureus” value [1, 12] was 500 ppm, the “ε-polylysine concentration … S. aureus” value [1, 13] was 500 ppm and the “ε-polylysine concentration … S. aureus” value [1, 14] was 250 ppm. The “ε-polylysine concentration … S. aureus” value [1, 15] was 500 ppm, the “ε-polylysine concentration … S. aureus” value [1, 16] was 500 ppm and the “ε-polylysine concentration … S. aureus” value [1, 17] was 250 ppm. The “ε-polylysine concentration … S. aureus” value [1, 18] was 500 ppm, the “ε-polylysine concentration … S. aureus” value [1, 19] was 500 ppm and the “ε-polylysine concentration … S. aureus” value [1, 20] was 250 ppm. For the same substance, the “ε-polylysine concentration … S. aureus” value [1, 21] was 500 ppm, the “ε-polylysine concentration … S. aureus” value [1, 22] was 500 ppm and the “ε-polylysine concentration … S. aureus” value [1, 23] was 250 ppm. The “ε-polylysine concentration … S. aureus” value [1, 24] was 500 ppm, the “ε-polylysine concentration … S. aureus” value [1, 25] was 500 ppm and the “ε-polylysine concentration … S. aureus” value [1, 26] was 500 ppm. For the same substance, the “ε-polylysine concentration … S. aureus” value [1, 27] was 500 ppm, the “ε-polylysine concentration … S. aureus” value [1, 28] was 500 ppm and the “ε-polylysine concentration … S. aureus” value [1, 29] was 500 ppm. The “concentration of ϵ-polylysine aqueous solution at which bacteriostatic effect against S. aureus was attained” value [1, 30] was 500 ppm, the “concentration of ϵ-polylysine aqueous solution at which bacteriostatic effect against S. aureus was attained” value [1, 31] was 500 ppm and the “ε-polylysine concentration at which L ≥ 0 was attained, E. coli” value (“ε-polylysine concentration … E. coli” below) [2, 3] was 500 ppm. The “ε-polylysine concentration … E. coli” value [2, 4] was 500 ppm, the “ε-polylysine concentration … E. coli” value [2, 5] was 250 ppm and the “ε-polylysine concentration … E. coli” value [2, 6] was 2,500 ppm. For the same substance, the “ε-polylysine concentration … E. coli” value [2, 7] was 2,500 ppm, the “ε-polylysine concentration … E. coli” value [2, 8] was 2,500 ppm and the “ε-polylysine concentration … E. coli” value [2, 9] was 2,500 ppm. For the same substance, the “ε-polylysine concentration … E. coli” value [2, 10] was 2,500 ppm, the “ε-polylysine concentration … E. coli” value [2, 11] was 2,500 ppm and the “ε-polylysine concentration … E. coli” value [2, 12] was 500 ppm. The “ε-polylysine concentration … E. coli” value [2, 13] was 500 ppm, the “ε-polylysine concentration … E. coli” value [2, 14] was 800 ppm and the “ε-polylysine concentration … E. coli” value [2, 15] was 500 ppm. The “ε-polylysine concentration … E. coli” value [2, 16] was 500 ppm, the “ε-polylysine concentration … E. coli” value [2, 17] was 250 ppm and the “ε-polylysine concentration … E. coli” value [2, 18] was 500 ppm. For the same substance, the “ε-polylysine concentration … E. coli” value [2, 19] was 500 ppm, the “ε-polylysine concentration … E. coli” value [2, 20] was 800 ppm and the “ε-polylysine concentration … E. coli” value [2, 21] was 500 ppm. For the same substance, the “ε-polylysine concentration … E. coli” value [2, 22] was 500 ppm, the “ε-polylysine concentration … E. coli” value [2, 23] was 250 ppm and the “ε-polylysine concentration … E. coli” value [2, 24] was 2,500 ppm. The “ε-polylysine concentration … E. coli” value [2, 25] was 2,500 ppm, the “ε-polylysine concentration … E. coli” value [2, 26] was 2,500 ppm and the “ε-polylysine concentration … E. coli” value [2, 27] was 2,500 ppm. The “ε-polylysine concentration … E. coli” value [2, 28] was 2,500 ppm, the “ε-polylysine concentration … E. coli” value [2, 29] was 2,500 ppm and the “concentration of ϵ-polylysine aqueous solution at which bacteriostatic effect against E. coli was attained” value [2, 30] was 2,500 ppm. The “concentration of ϵ-polylysine aqueous solution at which bacteriostatic effect against E. coli was attained” value [2, 31] was 500 ppm.
